Laboratory results taken from patent publication US20240343713A1, “TELOMERASE INHIBITOR COMPOUNDS” (Geron Corporation, priority 2023, published 2024).

Tests used:
[1] = for deaths after first dose reduction: 25 mg/Kg (Compound 1, Compound 2) or 10 mg/Kg (Compound 3) PO on Day-10 and Day-12, deaths Day 11-13; for animals lost due to overdose early in the study: initial dosing 50 mg/Kg then 25 or 10 mg/Kg PO, 7 animals per group
Method: 7.1 Body Weight. The body weight data of NOD-SCID mice used for this study involving different treatment groups (Vehicle Control, 10 mg/Kg of the three treatment groups and 50 mg/Kg of the reference standard) was monitored every alternate day.

LUC-MOLM13 cell line = details: for leukemia cell burden / tumor load by bioluminescence imaging (BLI), overall: male NOD-SCID mice, LUC-MOLM13 i.v., PO alternate days, test compounds finally 10 mg/Kg, BIBR-1532 50 mg/Kg, up to Day 28, vs vehicle control
Method: Screening of anticancer activity of compounds in an efficacy model using Luc-MOLM13 cell line
The efficacy study was conducted to assess the tumor regression of Compound 1, Compound 2, and Compound 3 shown below in male NOD-SCID mice using LUC-MOLM13 cell line. Individual animals were assigned identification markings on the ear.
Each mouse was intravenously injected with 1 million LUC-MOLM13 tumor cells in a total volume of 0.1 mL in DPBS and this would be considered as Day 0. Luciferin (150 mg/Kg body weight) was planned to be injected (JP) 5 mins before imaging and sequential 1-2 images of mice were planned every 1 minute. The animals were planned to be dosed with test compounds from Day 10 onwards by oral route at doses of 50 mg/Kg every alternate day.
The efficacy study was conducted to assess the inhibitory effect of Compound 1, Compound 3 and Compound 2 on leukemia cell expansion in male NOD-SCID mice using LUC-MOLM13 cell line.
1 million of LUC-MOLM13 cells/100 μL were suspended in DPBS and were inoculated per mouse via intravenous route in the lateral tail vein in NOD SCID male mice (Fed animals) of 6 to 8 weeks old after 7 days of acclimatization. This was considered as Day-0 of the study.
Luciferin (150 mg/Kg body weight) was injected (IP) 5 mins before imaging and sequential 1-2 images of mice were taken every 1 minute.
Bioluminescence imaging for tumor evaluation was done on Days 0, 5, 10, 15, 18, 21 and 28 respectively along with regular body weight monitoring. The following observations were monitored at regular intervals: body weight (% body weight loss), frequencies of leukemic cells (LUC-MOLM13) in hematopoietic organs and non-lymphoid tissues using imaging on an IVIS spectrum imager for tumor burden evaluation.
Other observations included any clinical signs/observations upon dosing. […] A range of tissues were collected including brain, axillary lymph node, eyes, branchial lymph node, lungs, heart, stomach, liver, kidney, spleen, cervical lymph node, mesenteric lymph node, inguinal lymph node, GI tract and male reproductive organ. Growth kinetics of Luc-MOLM13 cells was monitored based on BLI along with survival curve.
Initial plan was to dose from Day 10 onwards by oral route at doses of 50 mg/Kg every alternate day; however, we initiated the dosing from Day-8 onwards based on few reports [7, 8]. […] BIBR-1532 dosing was maintained at 50 mg/Kg every alternate day. […] Dosing was stopped for the next 4 days for all test compounds and BIBR-1532 considering the animal health condition. […]
The data for bioluminescence imaging levels (BLI (Avg Radiance) was captured from the instrument across the individual groups for the ROI (region of interest (ROI) and the average radiance was calculated to understand the levels as compared to vehicle control (Group 3).

Row | SMILES | overall animal health ([1]; LUC-MOLM13 tumor-bearing NOD-SCID mice, test compounds 10 mg/Kg, BIBR-1532 50 mg/Kg PO) | bioluminescence (average radiance) on Day 21 (LUC-MOLM13 cell line; Day 21, test compounds 10 mg/Kg, BIBR-1532 50 mg/Kg PO) | survival curve / deaths (LUC-MOLM13 cell line; after dose reduction, test compounds 10 mg/Kg, BIBR-1532 50 mg/Kg PO alternate days, until Day 34) | leukemia cell burden / tumor load by bioluminescence imaging (BLI), overall (LUC-MOLM13 cell line) | deaths after first dose reduction [1] | animals lost due to overdose early in the study [1] | loss of animals after the first dose ([1]; mouse, in vivo)
1 | C/C(=C\C(=O)Nc1ccccc1C(=O)O)c1ccc2ccccc2c1 [BIBR-1532, reference compound] | deteriorated | signal was enhanced | one death on Day 31 and another on Day 34 | repressed as the days progressed |  |  | 
2 | C=C1CC(c2ccc(Cl)cc2-c2cn[nH]c2)OC1=O (stereo not shown) [Compound 1] |  |  |  |  | one animal each on Day 12 and Day-13 | two | 
3 | C=C1C(=O)OC(c2ccc(Cl)cc2-c2cnn(C)c2)C1O (stereo not shown) [Compound 3] |  |  |  | comparable impact on leukemia cell reduction to that of BIBR-1532, albeit at a lower dosage | 1 | two | one
